Columns and labels:
[1] = test system: Southern house mosquito (Culex); assay: Treated filter paper knockdown (KD) and mortality trial (Example 4); format: in vivo
Procedure: (§1) A laboratory trial was conducted to assess the efficacy of nootkatone applied to filter paper against aphids (Schizaphis gramium), dust mites (Dermatophagoides sp.), termites (Reticulitermes flavipes), deer ticks (Ixodes scapularis), biting midges (Culicoides sp.), fire ants (Solenopsis invicta), and mosquitoes (Aedes aegypti and Culex), in terms of knockdown (KD) and mortality. One concentration (1% in ethanol) of nootkatone was assessed for most species, but three concentrations (0.25%, 0.5%, and 1% in ethanol) were assessed for mosquitoes. A negative control group, consisting of filter paper treated with ethanol, was also assessed for comparison purposes for each species.
(§2) Test systems were introduced to treated filter paper, allowed to dry, and then introduced into treatment chamber, where treated arthropods were monitored at intervals up to 72 hours. If 100% mortality was obtained prior to 72 hours, the individual study was halted.
(§3) Midges and mosquitoes—5 replicates of 10 insects per treatment were tested. Inverted 10 ounce (295 ml) clear plastic cups with a 0.5 inch (1.27 cm) hole burned into the center of the bottom, and with the sides coated with Fluon® was used at the treatment containers. The bottoms of the containers consisted of Petri dish lids 3.54 inches (9.0 cm) in diameter lined with a treated filter paper circle the same diameter. The cup was placed over the filter paper in the lid and both were secured in place using 2 rubber bands. The insects were introduced through the hole in the cup, and a plastic disc was placed over the opening to prevent escapes.
(§4) Readings were discontinued if treated mortality reaches […], or control mortality exceeds 20%.

[2] = test system: biting midges (Culicoides sp.); assay: as above; format: in vivo; settings: Nootkatone 1% in ethanol on filter paper
Procedure: as §1, §2, §3, §4

[3] = Nootkatone 0.25% in ethanol on filter paper, 30 minutes post introduction
[4] = Nootkatone 0.25% in ethanol on filter paper, 1 hour post introduction
[5] = Nootkatone 0.25% in ethanol on filter paper, 4 hours post introduction
[6] = Nootkatone 0.25% in ethanol on filter paper, 8 hours post introduction
[7] = Nootkatone 0.25% in ethanol on filter paper, 24 hours post introduction
[8] = Nootkatone 0.25% in ethanol on filter paper, 48 hours post introduction
[9] = Nootkatone 0.25% in ethanol on filter paper, 72 hours post introduction
[10] = Nootkatone 0.5% in ethanol on filter paper, 30 minutes post introduction
[11] = Nootkatone 0.5% in ethanol on filter paper, 1 hour post introduction
[12] = Nootkatone 0.5% in ethanol on filter paper, 4 hours post introduction
[13] = Nootkatone 0.5% in ethanol on filter paper, 8 hours post introduction
[14] = Nootkatone 0.5% in ethanol on filter paper, 24 hours post introduction
[15] = Nootkatone 0.5% in ethanol on filter paper, 48 hours post introduction
[16] = Nootkatone 0.5% in ethanol on filter paper, 72 hours post introduction
[17] = Nootkatone 1% in ethanol on filter paper, 30 minutes post introduction
[18] = Nootkatone 1% in ethanol on filter paper, 1 hour post introduction
[19] = Nootkatone 1% in ethanol on filter paper, 4 hours post introduction
[20] = Nootkatone 1% in ethanol on filter paper, 8 hours post introduction
[21] = Nootkatone 1% in ethanol on filter paper, 24 hours post introduction
[22] = Nootkatone 1% in ethanol on filter paper, 48 hours post introduction
[23] = Nootkatone 1% in ethanol on filter paper, 72 hours post introduction

Q: What does the source list for C=C(C)[C@@H]1CCC2=CC(=O)C[C@@H](C)[C@]2(C)C1 [Nootkatone, nootkatone]?
A: Means Affected [1, 3]: 24.0%; Means Dead [1, 3]: 0.0%; Means KD [1, 3]: 24.0%; Means Affected [1, 4]: 22.0%; Means Dead [1, 4]: 0.0%; Means KD [1, 4]: 22.0%; Means Affected [1, 5]: 32.2%; Means Dead [1, 5]: 0.0%; Means KD [1, 5]: 32.2%; Means Affected [1, 6]: 18.0%; Means Dead [1, 6]: 0.0%; Means KD [1, 6]: 18.0%; Means Affected [1, 7]: 26.2%; Means Dead [1, 7]: 12.2%; Means KD [1, 7]: 14.0%; Means Affected [1, 8]: 75.6%; Means Dead [1, 8]: 61.3%; Means KD [1, 8]: 14.2%; Means Affected [1, 9]: 76.0%; Means Dead [1, 9]: 74.0%; Means KD [1, 9]: 2.0%; Means Affected [1, 10]: 0.0%; Means Dead [1, 10]: 0.0%; Means KD [1, 10]: 0.0%; Means Affected [1, 11]: 2.5%; Means Dead [1, 11]: 0.0%; Means KD [1, 11]: 2.5%; Means Affected [1, 12]: 4.0%; Means Dead [1, 12]: 0.0%; Means KD [1, 12]: 4.0%; Means Affected [1, 13]: 4.0%; Means Dead [1, 13]: 0.0%; Means KD [1, 13]: 4.0%; Means Affected [1, 14]: 29.0%; Means Dead [1, 14]: 10.5%; Means KD [1, 14]: 18.5%; Means Affected [1, 15]: 72.0%; Means Dead [1, 15]: 49.0%; Means KD [1, 15]: 23.0%; Means Affected [1, 16]: 82.0%; Means Dead [1, 16]: 82%; Means KD [1, 16]: 0.0%; Means Affected [1, 17]: 2.2%; Means Dead [1, 17]: 0.0%; Means KD [1, 17]: 2.2%; Means Affected [1, 18]: 52.2%; Means Dead [1, 18]: 0.0%; Means KD [1, 18]: 52.2%; Means Affected [1, 19]: 83.7%; Means Dead [1, 19]: 0.0%; Means KD [1, 19]: 83.7%; Means Affected [1, 20]: 92.0%; Means Dead [1, 20]: 13.1%; Means KD [1, 20]: 78.9%; Means Affected [1, 21]: 100.0%; Means Dead [1, 21]: 97.8%; Means KD [1, 21]: 2.2%; Means Affected [1, 22]: 100.0%; Means Dead [1, 22]: 100.0%; Means KD [1, 22]: 0.0%; Means Affected [1, 23]: 100.0%; Means Dead [1, 23]: 100%; Means KD [1, 23]: 0.0%; Time required for greater than 90% killing [2]: 24 h; Means Affected ([2]; 30 minutes post introduction): 100.0%; Means Dead ([2]; 30 minutes post introduction): 0.0%; Means KD ([2]; 30 minutes post introduction): 100.0%; Means Affected ([2]; 1 hour post introduction): 100.0%; Means Dead ([2]; 1 hour post introduction): 1.8%; Means KD ([2]; 1 hour post introduction): 98.2%

From patent publication US11800867B2, “Methods of repelling biting arthropods, reducing pathogen spread and treating arthropod infestation” (priority 2016, dated 2023)
